# Data published in patent US8889696B2, “Substituted pyrido[2,3-d]pyrimidin-7(8H)-ones and therapeutic uses thereof” (Temple University—Of The Commonwealth System Of Higher …, priority 2009, dated 2014).
# Tests used:
# [1] = tested on: K562 (chronic myelogenous leukemia); assay: Effect on tumor cell lines (Latham assay), K562; format: cell-based; conditions: Homo sapiens; K562 cells, examined 96 hours after treatment; read-out: Potencies (IC50) K 562
# Description: (§1) The plated cells were treated 24 hours later with a compound of the invention dissolved in DMSO at multiple concentrations ranging from 0.01 μM to 100 μM. […] When necessary, the total number of viable cells was determined by trypsinizing the wells and counting the number of viable cells, as determined by trypan blue exclusion, using a hemacytometer.
# DU145 (prostate cancer) = assay: Effect on tumor cell lines (Latham assay), DU145; format: cell-based; conditions: Homo sapiens, DU-145; DU145 cells, examined 96 hours after treatment; read-out: Potencies (IC50) DU 145
# Description: as §1
Structure (SMILES),IC50 [1] [µM],IC50 (DU145 (prostate cancer)) [µM],melting point [°C]
"Cn1c(=O)c(S(=O)(=O)c2ccccc2)cc2cnc(Nc3ccc4cc[nH]c4c3)nc21 [Example 25, 2-(1H-indol-6-ylamino)-8-methyl-6-(phenylsulfonyl)pyrido[2,3-d]pyrimidin-7(8H)-one]",25 to 50,25 to 50,> 350
"COC(=O)c1ccc(S(=O)(=O)c2cc3cnc(Nc4ccc5[nH]ccc5c4)nc3n(C)c2=O)cc1 [Example 26, methyl 4-(2-(1H-indol-5-ylamino)-7,8-dihydro-8-methyl-7-oxopyrido[2,3-d]pyrimidin-6-ylsulfonyl)benzoate]",1 to 10,1 to 10,305 to 310
"Cc1ccc(S(=O)(=O)c2cc3cnc(Nc4ccc5c(c4)CC(=O)N5)nc3n(C)c2=O)cc1 [Example 27, 2-(2-oxoindolin-5-ylamino)-8-methyl-6-tosylpyrido[2,3-d]pyrimidin-7(8H)-one]",25 to 50,50 to 100,280
"Cc1ccc(S(=O)(=O)c2cc3cnc(Nc4ccc5cc[nH]c5c4)nc3n(C)c2=O)cc1 [Example 28, 2-(1H-indol-6-ylamino)-8-methyl-6-tosylpyrido[2,3-d]pyrimidin-7(8H)-one]",10 to 25,10 to 25,334 to 336
"COc1ccc(S(=O)(=O)c2cc3cnc(Nc4ccc5[nH]ccc5c4)nc3n(C)c2=O)cc1 [Example 29, 2-(1H-indol-5-ylamino)-6-(4-methoxyphenylsulfonyl)-8-methylpyrido[2,3-d]pyrimidin-7(8H)-one]",< 1,< 1,260 to 262
"COc1ccc(S(=O)(=O)c2cc3cnc(Nc4cccc5[nH]ccc45)nc3n(C)c2=O)cc1 [Example 30, 2-(1H-indol-4-ylamino)-6-(4-methoxyphenylsulfonyl)-8-methylpyrido[2,3-d]pyrimidin-7(8H)-one]",1 to 10,1 to 10,289 to 292
"Cn1c(=O)c(S(=O)(=O)c2ccc(Cl)cc2)cc2cnc(Nc3cccc4[nH]ccc34)nc21 [Example 31, 2-(1H-indol-4-ylamino)-6-(4-chlorophenylsulfonyl)-8-methylpyrido[2,3-d]pyrimidin-7(8H)-one]",1 to 10,1 to 10,320 to 324
"Cn1c(=O)c(S(=O)(=O)c2ccc(Cl)cc2)cc2cnc(Nc3cnc4[nH]ccc4c3)nc21 [Example 32, 2-(1H-pyrrolo[2,3-b]pyridin-5-ylamino)-6-(4-chlorophenylsulfonyl)-8-methylpyrido[2,3-d]pyrimidin-7(8H)-one]",1 to 10,1 to 10,296 to 298
"Cn1c(=O)c(S(=O)(=O)c2ccc(F)c(Cl)c2)cc2cnc(Nc3ccc4[nH]ccc4c3)nc21 [Example 33, 2-(1H-indol-5-ylamino)-6-(3-chloro-4-fluorophenylsulfonyl)-8-methylpyrido[2,3-d]pyrimidin-7(8H)-one]",< 1,1 to 10,250 to 255
"Cn1c(=O)c(S(=O)(=O)c2ccc(F)c(Cl)c2)cc2cnc(Nc3cccc4[nH]ccc34)nc21 [Example 34, 2-(1H-indol-4-ylamino)-6-(3-chloro-4-fluorophenylsulfonyl)-8-methylpyrido[2,3-d]pyrimidin-7(8H)-one]",50 to 100,50 to 100,315 to 320
"Cn1c(=O)c(S(=O)(=O)c2ccc(F)c(Cl)c2)cc2cnc(Nc3cnc4[nH]ccc4c3)nc21 [Example 35, 2-(1H-pyrrolo[2,3-b]pyridin-5-ylamino)-6-(3-chloro-4-fluorophenylsulfonyl)-8-methylpyrido[2,3-d]pyrimidin-7(8H)-one]",< 1,< 1,320 to 325
"Cn1c(=O)c(S(=O)(=O)c2ccc(C(=O)O)cc2)cc2cnc(Nc3ccc4[nH]ccc4c3)nc21 [Example 37, 4-(2-(1H-indol-5-ylamino)-7,8-dihydro-8-methyl-7-oxopyrido[2,3-d]pyrimidin-6-ylsulfonyl)benzoic acid]",10 to 25,10 to 25,262 to 265
